Data: PubChem BioAssay AID849 (SRMLSC, 2007)
Calls of active or inactive are those of the source. How the calls were made is not given here.

Tested on: Saccharomyces cerevisiae lifespan shortening, growth inhibition
Test: yeast lifespan shortening compounds, dose response (AID 849);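 further: yeast growth read as optical density after two days at 30 degrees C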

SMILES	IC50
Cc1cc([N+](=O)[O-])ccc1-c1ccc(C2Nc3ccccc3C(=O)N2O)o1 (stereo unspecified)	> 100 µM (inactive)
O=C(O)c1ccccc1C(=O)NNc1ccc(Cl)cc1	4.61 µM
CCOC(=O)N1CCN(C(=O)Cn2nc(C)c3sc4ccccc4c3c2=O)CC1	> 100 µM (inactive)
C=CCN1C(=O)/C(=C/c2cccs2)C(=O)NC1=S	17.6 µM
O=c1cc(-c2ccccc2)[nH]n1-c1nc2ccccc2[nH]1	12.2 µM
Cc1cccc(-c2nnc3sc(-c4ccccc4C)nn23)c1	> 100 µM (inactive)
CCN1CCN(C(=O)C(NS(=O)(=O)c2ccc3nc(C)sc3c2)C(C)C)CC1 (stereo unspecified)	> 100 µM (inactive)
CCC(=O)NC(c1ccc(C)cc1)c1cc([N+](=O)[O-])c2cccnc2c1O (stereo unspecified)	25.3 µM
O=C(Nc1cccc(C(F)(F)F)c1)C(Sc1cccc[n+]1[O-])c1ccccc1 (stereo unspecified)	21.5 µM
Cc1cc(O)c(/C=N/Nc2ccccc2)c(=O)o1	25.2 µM
COc1ccccc1OCCN1CSC(=S)N(C)C1	11.8 µM
c1ccc(-c2nnc(-c3ccccn3)nc2NC2CCCCC2)cc1	12.5 µM
COc1ccc(OCc2nnc3n2N=C(c2ccc(OC)cc2)CS3)cc1	> 100 µM (inactive)
CCOC(=O)c1c(NC(=S)Nc2ccc(Cl)cc2)sc2c1CCN(C)C2	7.82 µM
CCCn1c(CNc2ccccc2O)nc2ccccc21	> 100 µM (inactive)
CCCc1ccc(OCC(=O)NNC(=S)NC(=O)c2ccco2)cc1	15.1 µM
COc1cc(/C=C2\C(=O)ON=C2c2ccccc2)cc(OC)c1OC	18.5 µM
CC1/C(=N/O)CC(c2ccccc2)N(C)C1c1ccccc1 (stereo unspecified)	> 100 µM (inactive)
C=CCC1c2cccc(C(=O)O)c2C(=O)N1c1cccc(C)c1 (stereo unspecified)	2.79 µM
OC(CNCCC1C=Nc2ccccc21)Cn1c2ccc(Cl)cc2c2cc(Cl)ccc21 (stereo unspecified)	20 µM
CC(C)(C)c1cc(NCCCn2ccnc2)n2ncc(-c3ccc(Cl)cc3)c2n1	> 100 µM (inactive)
CCn1ncc(C2=NOC(C(=O)Nc3c(C)n(C)n(-c4ccccc4)c3=O)C2)c1C (stereo unspecified)	> 100 µM (inactive)
Cc1ccc(C(=O)O/N=C/c2c(N3CCOCC3)n(C)c3ccccc23)cc1	> 100 µM (inactive)
CN1CCN(CC(=O)N2CCn3c4c(c5cc(C6CCCCC6)ccc53)CCCC42)CC1 (stereo unspecified)	> 100 µM (inactive)

SMILES	IC50
Cc1ccc(NN2C(=O)C=C(c3ccc(Cl)cc3)C2=O)cc1	18.4 µM
O=c1cc(-c2ccncc2)oc2ccccc12	51.1 µM
Cc1cc(C)cc(NS(=O)(=O)c2cnc(Cl)c(Cl)c2)c1	47.5 µM
Oc1ccc(/C=C/c2nc(-c3ccccc3O)n(-c3ccccc3)n2)cc1	> 100 µM (inactive)
CCOC(=O)/C(=N\Nc1cccc(C(F)(F)F)c1)N(CCOC)CCOC	> 100 µM (inactive)
Cc1ccc(N/N=C/c2cccnc2)cc1	39.6 µM
O=C(Nc1nc(-c2ccccn2)cs1)c1ncc(Cl)c(Cl)c1Cl	> 100 µM (inactive)
O=C(Nc1cccc(N=Cc2cc(Br)cc(Br)c2O)c1)c1ccco1	19.3 µM
C/C(=N\Nc1nc2c(s1)CCCC2)c1ccccc1	31.9 µM
CC(C)N=c1scc(-c2ccco2)n1/N=C/c1ccc(O)c(O)c1	49.1 µM
Cc1cc(O)c(/C=N/Nc2ccc(Cl)cc2)c(=O)o1	5.9 µM
COc1cccc2c(=O)c3c(cnn3C)n(C)c12	11.7 µM
CC(C)c1ccc2c(c1)C1(NN=C(c3ccccc3)S1)C(=O)N2 (stereo unspecified)	26.3 µM
Cc1ccc2c(c1)-c1nc3ccccc3cc1C2=NC1CCCCC1	35.6 µM
O=C(c1cc(-c2ccccc2O)on1)N1CCc2ccccc2C1	> 100 µM (inactive)
Clc1ccc(COC(Cn2ccnc2)c2ccc(Cl)cc2Cl)cc1 (stereo unspecified)	0.809 µM
NNC(=O)c1ccc(COc2cccc3ccccc23)cc1	30.3 µM
c1ccc2c(c1)C(=Nn1cnnc1)c1ccccc1-2	> 100 µM (inactive)
CC(C)(C)C(O)C(Oc1ccc(Cl)cc1)n1cncn1 (stereo unspecified)	3.14 µM
CCCCc1oc2ccccc2c1C(=O)c1cc(I)c(OCCN(CC)CC)c(I)c1	7.79 µM
CC(=O)c1c(C)oc2c1C(=O)c1ccccc1C2=O	> 100 µM (inactive)
CC1=NOC(=O)/C1=C\c1ccc(-c2ccc(Cl)cc2Cl)o1	> 100 µM (inactive)
CCC(C)NC(=O)C1CCN(S(=O)(=O)c2cccc3cccnc23)CC1 (stereo unspecified)	> 100 µM (inactive)
O=C(O)Cc1cc(I)c(Oc2ccc(O)c(I)c2)c(I)c1	23.9 µM

SMILES	IC50
CC1(C)CC(=NOC(=O)c2ccccc2)CC(C)(C)N1O	8.22 µM
CCOC(=O)c1c(/N=C/c2cccc([N+](=O)[O-])c2O)sc(C)c1C	18.5 µM
CCOc1ccc(/C=C/[N+](=O)[O-])c2ccccc12	> 100 µM (inactive)
Cc1ccc(N/N=C(\C#N)C(N)=S)c(C)c1	> 100 µM (inactive)
COc1ccc2c(c1)S/C(=C\C(=O)c1ccncc1)N2C	5.32 µM
COc1ccc2c(c1)c1nnc(SC)nc1n2C	44.1 µM
C=CCNC(=S)N/N=C(\C)c1ccccn1	17.6 µM
c1ccc(Cc2nnc3sc(-c4ccco4)nn23)cc1	> 100 µM (inactive)
COc1cccc(CC(=O)Nc2ccc3nc(C)sc3c2)c1	35 µM
Clc1ccc(COC(Cn2ccnc2)c2ccc(Cl)cc2Cl)c(Cl)c1 (stereo unspecified)	< 0.098 µM
COc1cc(-c2nc3ccc4ccccc4c3c3c2CCC3)ccc1O	> 100 µM (inactive)
N=c1n(CCN2CCOCC2)c2ccccc2n1CC(=O)c1ccc(Cl)c(Cl)c1	> 100 µM (inactive)
COc1ccc(OC)c(-c2c3cc(O)c(=O)cc-3oc3cc(O)c(O)cc23)c1	30.1 µM
O=C1c2ccccc2NC(c2ccc(-c3ccc(Br)cc3)o2)N1O (stereo unspecified)	25 µM
CC(=O)N1c2ccccc2C2(O)N=C(C)SC12 (stereo unspecified)	> 100 µM (inactive)
Clc1ccc(N/N=C/c2cccnc2)cc1	> 100 µM (inactive)
CCCc1cc(C(=O)Cc2ccc(F)cc2)c(O)cc1O	48.3 µM
CCOC(=O)C(=NCCCN(C)C)NNc1ccc(Br)cc1	11.1 µM
C(=C\c1nc(N2CCCCCC2)c2ccccc2n1)/c1ccccc1	42.1 µM
COc1ccccc1C(=O)NNC(=S)NC(=O)c1ccco1	> 100 µM (inactive)
Oc1c(Cl)cc(Cl)c(Cl)c1Cc1c(O)c(Cl)cc(Cl)c1Cl	> 100 µM (inactive)
Clc1ccc(N/N=C/c2ccncc2)cc1Cl	> 100 µM (inactive)
c1ccc(-c2ccc(OCCCn3cncn3)cc2)cc1	> 100 µM (inactive)
O=C(Nc1nnc(C2CC2)s1)c1ccccn1	42.6 µM

SMILES	IC50
N#C/C(=N/O)c1nc(-c2ccc(F)cc2)cs1	24.9 µM
CCS(=O)(=O)n1nc(-c2ccc(Cl)cc2)nc1SCc1ccccc1	> 100 µM (inactive)
COC(=O)c1ccc(C(=O)OC)c(NC(=O)CSc2cccc[n+]2[O-])c1	0.822 µM
Cc1cc2c(cc(C(=O)O)n2C)s1	36.5 µM
O=C(OCn1ncc(Br)c(Br)c1=O)c1ccccc1Cl	> 100 µM (inactive)
O=C(Oc1c(Cl)cc(Cl)c2cccnc12)c1cccs1	11.1 µM
CCCC1COC(Cn2cncn2)(c2ccc(C)cc2)O1 (stereo unspecified)	3.94 µM
O=[N+]([O-])c1cc(CN2CCCC2)c2cccnc2c1O	> 100 µM (inactive)
CN1C(=O)C(O)(CC(=O)c2ccccc2O)c2cc(Br)ccc21 (stereo unspecified)	> 100 µM (inactive)
Cc1c(C=O)c2ccccn2c1C(=O)c1ccncc1	> 100 µM (inactive)
O=C(COc1ccccc1)NNC(=S)NC(=O)c1ccc(Cl)cc1Cl	31.6 µM
Cc1onc(-c2ccccc2)c1C(=O)NC(=S)NNC(=O)c1ccc(O)cc1O	> 100 µM (inactive)
Cc1cccc(Nc2nc(-c3ccccn3)cs2)n1	20.3 µM
Cc1cc(N2CCN(c3cccc(C)c3C)CC2)nc(-c2ccccc2)n1	35.4 µM
CC(C)Sc1nc(N)nc(-c2cccs2)c1C#N	> 100 µM (inactive)
Cc1cccc(OCCN2CSC(=S)N(C)C2)c1	13 µM
C=C(C)COc1ccc(-c2[nH]ncc2Oc2ccccc2OC)c(O)c1	> 100 µM (inactive)
Cc1ccc(C)c(/C=C/C(=O)c2ccccc(=O)c2O)c1	6.4 µM
CCCCCCN1N=C(C)C(C(=O)c2ccc(Cl)cc2)C1=O (stereo unspecified)	16.4 µM
Cc1c(C(=O)O)cccc1-c1ccc(/C=N/Nc2ccc(Br)cc2)o1	> 100 µM (inactive)
O=C1CCCC/C1=N\Nc1ccc(OCc2ccccc2)cc1	13.3 µM
CCn1c(=O)c(C(=O)Nn2c(C)nc3ccccc3c2=O)c(O)c2ccccc21	15.5 µM
CN(c1ccc(O)cc1)c1nc(-c2ccccc2)cs1	> 100 µM (inactive)
CCOC(=O)c1cc([N+](=O)[O-])c([N+](=O)[O-])cc1NC(C)=O	< 0.098 µM

SMILES	IC50
CC(C)CC(=O)/C(=C\c1ccc(Cl)cc1Cl)n1cncn1	15.8 µM
O=Nc1c(O)n(Cc2ccc(Cl)c(Cl)c2)c2ccccc12	> 100 µM (inactive)
COc1ccc(-c2cc(-c3ccccc3O)[nH]n2)cc1	> 100 µM (inactive)
Cn1cccc1Cc1nnc(SCC(=O)Nc2nccs2)n1CCc1ccccc1	> 100 µM (inactive)
CC1CCN(c2nc(/C=C/c3ccccc3)nc3ccccc23)CC1	24.7 µM
Cc1ccc(N/N=C/c2c(O)cc(C)oc2=O)cc1	24.3 µM
FC(F)Sc1ccc(Nc2ncnc3nc[nH]c23)cc1	> 100 µM (inactive)
O=[N+]([O-])c1cc(/C=N/O)ccc1Sc1ccccc1	> 100 µM (inactive)
O=c1c2sc(-c3ccccc3)cc2nc2n1CCC2	13.8 µM
COc1cccc(/C=N/N2C(=O)CSC2=S)c1O	> 100 µM (inactive)
Cc1nn(-c2ccccc2)c2sc(-c3n[nH]c(=S)o3)cc12	> 100 µM (inactive)
O=[N+]([O-])c1ccc(N=Nc2ccc(O)cc2O)cc1	32 µM
O=C(OCn1ncc(Cl)c(Cl)c1=O)c1ccc(F)cc1	> 100 µM (inactive)
CN1CCN(C2=Cc3ccc(Cl)cc3Sc3ccc(F)cc32)CC1	30 µM
CCCCCCCOC(=O)C[N+](C)(C)CCOC1CC2CCC1(C)C2(C)C (stereo unspecified)	28.4 µM
O=C(OCn1ncc(Cl)c(Cl)c1=O)c1cccc(C(F)(F)F)c1	> 100 µM (inactive)
Cc1ccc(N=Cc2cccc(O)c2O)c(C)c1	13.1 µM
COc1ccc2c(c1)[nH]c1c(Cl)ncnc12	29.9 µM
COc1ccccc1-n1c(=O)oc2ccc(Cl)cc2c1=O	> 100 µM (inactive)
Oc1ccc(-c2csc(-c3ccccc3)n2)cc1O	27.5 µM
